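Compound exposure: 48 hours, 5 concentrations, 96-well plates. GI50 is the concentration that inhibits growth by half.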 Active and inactive are the calls of the source. Cut-off read from the data, not from the text of the source: active = GI50 up to about 1.1 µM and inactive = higher.
Experiments:
Assay in all cases: NCI tumour cell line growth inhibition, 48 h
[1] = test system: A549
[2] = test system: CAKI-1
[3] = test system: CCRF-CEM
[4] = test system: HL-60
[5] = test system: HOP-62
[6] = test system: HOP-92
[7] = test system: IGROV-1
[8] = test system: MDA-MB-231
[9] = test system: MDA-N
[10] = test system: MOLT-4
[11] = test system: NCI-H226
[12] = test system: OVCAR-4
[13] = test system: SK-MEL-5
[14] = test system: SK-OV-3
[15] = test system: SNB-19
[16] = test system: SW-620
[17] = test system: T47D
[18] = test system: TK-10
[19] = test system: UACC-62
[20] = test system: HCC 2998

O=C(O)C(=O)Cc1ccc2c(c1)OCO2
GI50 [1]: > 100 µM (inactive)
GI50 [2]: > 100 µM (inactive)
GI50 [3]: 18.9 µM (inactive)
GI50 [4]: > 100 µM (inactive)
GI50 [5]: > 100 µM (inactive)
GI50 [6]: > 100 µM (inactive)
GI50 [7]: > 100 µM (inactive)
GI50 [8]: > 100 µM (inactive)
GI50 [9]: > 100 µM (inactive)
GI50 [10]: 83.8 µM (inactive)
GI50 [11]: 65.5 µM (inactive)
GI50 [12]: > 100 µM (inactive)
GI50 [13]: > 100 µM (inactive)
GI50 [14]: > 100 µM (inactive)
GI50 [15]: > 100 µM (inactive)
GI50 [16]: > 100 µM (inactive)
GI50 [17]: > 100 µM (inactive)
GI50 [18]: > 100 µM (inactive)
GI50 [19]: > 100 µM (inactive)

COc1ccc(C2c3cc4c(cc3OC(N3CCCCC3)C2C)OCO4)cc1 (stereo unspecified)
GI50 [1]: 85.1 µM (inactive)
GI50 [2]: 36.6 µM (inactive)
GI50 [3]: > 100 µM (inactive)
GI50 [5]: > 100 µM (inactive)
GI50 [7]: > 100 µM (inactive)
GI50 [9]: > 100 µM (inactive)
GI50 [10]: > 100 µM (inactive)
GI50 [13]: > 100 µM (inactive)
GI50 [15]: > 100 µM (inactive)
GI50 [16]: > 100 µM (inactive)
GI50 [17]: 71 µM (inactive)
GI50 [18]: > 100 µM (inactive)
GI50 [19]: > 100 µM (inactive)

COc1cc(C2=C(c3cc(OC)c4ccccc4c3OC)C(=O)c3ccccc3C2=O)c(OC)c2ccccc12
GI50 [1]: > 100 µM (inactive)
GI50 [2]: > 100 µM (inactive)
GI50 [3]: > 100 µM (inactive)
GI50 [4]: 10.2 µM (inactive)
GI50 [5]: > 100 µM (inactive)
GI50 [6]: > 100 µM (inactive)
GI50 [7]: > 100 µM (inactive)
GI50 [9]: > 100 µM (inactive)
GI50 [10]: > 100 µM (inactive)
GI50 [11]: 59.6 µM (inactive)
GI50 [12]: 1.14 µM (inactive)
GI50 [13]: > 100 µM (inactive)
GI50 [14]: > 100 µM (inactive)
GI50 [15]: > 100 µM (inactive)
GI50 [16]: > 100 µM (inactive)
GI50 [17]: > 100 µM (inactive)
GI50 [18]: > 100 µM (inactive)
GI50 [19]: > 100 µM (inactive)

COP(=O)(OC)C(C)(C)NC(=O)NC(F)(F)F
GI50 [1]: > 100 µM (inactive)
GI50 [2]: 0.01 µM (active)
GI50 [3]: > 100 µM (inactive)
GI50 [20]: > 100 µM (inactive)
GI50 [4]: > 100 µM (inactive)
GI50 [5]: > 100 µM (inactive)
GI50 [7]: > 100 µM (inactive)
GI50 [8]: > 100 µM (inactive)
GI50 [9]: > 100 µM (inactive)
GI50 [10]: > 100 µM (inactive)
GI50 [11]: 22.2 µM (inactive)
GI50 [12]: > 100 µM (inactive)
GI50 [13]: > 100 µM (inactive)
GI50 [14]: > 100 µM (inactive)
GI50 [15]: 70.1 µM (inactive)
GI50 [16]: > 100 µM (inactive)
GI50 [17]: > 100 µM (inactive)
GI50 [18]: > 100 µM (inactive)
GI50 [19]: > 100 µM (inactive)

O=C1NC(N2CCCCC2)=N/C1=C\c1ccccc1O
GI50 [1]: > 100 µM (inactive)
GI50 [2]: > 100 µM (inactive)
GI50 [3]: > 100 µM (inactive)
GI50 [4]: 43.5 µM (inactive)
GI50 [5]: > 100 µM (inactive)
GI50 [6]: > 100 µM (inactive)
GI50 [7]: > 100 µM (inactive)
GI50 [8]: > 100 µM (inactive)
GI50 [9]: > 100 µM (inactive)
GI50 [10]: > 100 µM (inactive)
GI50 [11]: 36.6 µM (inactive)
GI50 [12]: 13 µM (inactive)
GI50 [13]: 50.2 µM (inactive)
GI50 [14]: > 100 µM (inactive)
GI50 [15]: > 100 µM (inactive)
GI50 [16]: > 100 µM (inactive)
GI50 [17]: > 100 µM (inactive)
GI50 [18]: > 100 µM (inactive)

CN(C)CCCNc1ccc2nnn3c4ccc(OC(=O)c5ccccc5)cc4c(=O)c1c23
GI50 [1]: 2.43 µM (inactive)
GI50 [2]: 0.579 µM (active)
GI50 [3]: 1.08 µM (active)
GI50 [20]: 9.08 µM (inactive)
GI50 [5]: 5.92 µM (inactive)
GI50 [6]: 12.6 µM (inactive)
GI50 [7]: 2.11 µM (inactive)
GI50 [8]: 10.4 µM (inactive)
GI50 [9]: 13.8 µM (inactive)
GI50 [10]: 0.192 µM (active)
GI50 [12]: 1.66 µM (inactive)
GI50 [14]: 9.51 µM (inactive)
GI50 [15]: 10.9 µM (inactive)
GI50 [16]: 4.53 µM (inactive)
GI50 [17]: 18.7 µM (inactive)
GI50 [18]: 7.8 µM (inactive)
GI50 [19]: 14.5 µM (inactive)

N[C@@H](Cc1ccc2oc3cc(=O)c4ccccc4c-3nc2c1)C(=O)O
GI50 [1]: 40.2 µM (inactive)
GI50 [2]: > 100 µM (inactive)
GI50 [3]: 38.5 µM (inactive)
GI50 [4]: > 100 µM (inactive)
GI50 [5]: 21.9 µM (inactive)
GI50 [6]: > 100 µM (inactive)
GI50 [7]: > 100 µM (inactive)
GI50 [8]: > 100 µM (inactive)
GI50 [9]: 16.6 µM (inactive)
GI50 [10]: 40.7 µM (inactive)
GI50 [11]: 34 µM (inactive)
GI50 [12]: > 100 µM (inactive)
GI50 [13]: 11.7 µM (inactive)
GI50 [14]: > 100 µM (inactive)
GI50 [15]: 26.4 µM (inactive)
GI50 [16]: > 100 µM (inactive)
GI50 [17]: > 100 µM (inactive)
GI50 [18]: > 100 µM (inactive)
GI50 [19]: 27.4 µM (inactive)

O=C1CC2(CCNCC2)C(=O)N1N1CCCC1
GI50 [1]: > 100 µM (inactive)
GI50 [2]: > 100 µM (inactive)
GI50 [3]: > 100 µM (inactive)
GI50 [20]: > 100 µM (inactive)
GI50 [4]: > 100 µM (inactive)
GI50 [5]: > 100 µM (inactive)
GI50 [7]: > 100 µM (inactive)
GI50 [8]: > 100 µM (inactive)
GI50 [9]: > 100 µM (inactive)
GI50 [10]: > 100 µM (inactive)
GI50 [11]: > 100 µM (inactive)
GI50 [13]: > 100 µM (inactive)
GI50 [14]: > 100 µM (inactive)
GI50 [15]: > 100 µM (inactive)
GI50 [16]: > 100 µM (inactive)
GI50 [17]: > 100 µM (inactive)
GI50 [18]: > 100 µM (inactive)
GI50 [19]: > 100 µM (inactive)
